Experimental data as given in patent US4861788A, “Antibacterial 1-normon-2-yl-heterocyclic compounds” (Beecham Group plc, priority 1983, dated 1989).
Converted amounts (≈) assume the structure as drawn. Where two headings read alike, the source gives them in different places.

Experiments:
[1] = system: M. hyopneumoniae HK (2); assay: MIC against Mycoplasma in vitro (Friis broth with agarose); assay type: cell-based; details: Mesomycoplasma hyopneumoniae, 144 h
[2] = system: M. hyopneumoniae NCTC 101101; assay: as above; assay type: cell-based; details: Mesomycoplasma hyopneumoniae, NCTC101101, 144 h
[3] = system: M. hyorhinis ATCC 25021; assay: as above; assay type: cell-based; details: Mesomycoplasma hyorhinis, ATCC25021, 144 h
[4] = system: M. hyosynoviae ATCC 25591; assay: as above; assay type: cell-based; details: 144 h
[5] = system: M. bovis NCTC 10131; assay: microbe, parasite or virus in culture; assay type: cell-based; details: NCTC10131, 144 h
[6] = system: M. bovigenitalium ATCC 14173; assay: MIC against Mycoplasma in vitro (Friis broth with agarose); assay type: cell-based; details: 144 h
[7] = system: M. dispar NCTC 10125; assay: as above; assay type: cell-based; details: 144 h
[8] = system: Neisseria catarrhalis 1502; assay: MIC against human bacteria in vitro (nutrient agar, chocolated horse blood); assay type: cell-based
How it was run: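 In vitro agar-dilution testing: drug dilutions prepared in nutrient medium with chocolated horse blood (5%).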

[9] = system: E. coli NCTC 10418; assay: MIC against veterinary bacteria in vitro (Diagnostic Sensitivity Test Agar); details: Escherichia coli, NCTC10418, 18 h
Protocol: (§1) The activity of the normonyl derivatives of the Examples against various veterinarily important bacteria, was assayed in vitro using two-fold serial dilutions in Diagnostic Sensitivity Test Agar inoculated with 10^4 organisms.

[10] = system: E. coli E1; assay: as above; details: Escherichia coli, E1, 18 h
Protocol: as §1

[11] = system: S. dublin S7; assay: as above; details: Salmonella enterica, S7, 18 h
Protocol: as §1

[12] = system: Bord. bronchiseptica B08; assay: as above; details: Bordetella bronchiseptica, B08, 18 h
Protocol: as §1

[13] = system: Bord. bronchiseptica B09; assay: as above; details: Bordetella bronchiseptica, B09, 18 h
Protocol: as §1

[14] = system: Past. multocida PA1; assay: as above; details: Pasteurella multocida, PA1, 18 h
Protocol: as §1

[15] = system: Past. multocida PA2; assay: as above; details: Pasteurella multocida, PA2, 18 h
Protocol: as §1

[16] = system: Erysipelothrix rhusiopathiae NCTC 8163; assay: as above; details: NCTC8163, 18 h
Protocol: as §1

[17] = system: Strep. uberis SPU1; assay: as above; details: Streptococcus uberis, SPU1, 18 h
Protocol: as §1

[18] = system: Strep. agalactiae SPA1; assay: as above; details: Streptococcus agalactiae, SPA1, 18 h
Protocol: as §1

[19] = system: B. subtilis ATCC 6633; assay: as above; details: Bacillus subtilis, ATCC6633, 18 h
Protocol: as §1

[20] = system: M. hyopneumoniae NB12; assay: MIC against Mycoplasma in vitro (Friis broth with agarose); assay type: cell-based; details: Mesomycoplasma hyopneumoniae, 144 h; M. hyopneumoniae NB12; 6 days at 37° C; read-out: MIC
[21] = system: M. hyopneumoniae MS 16; assay: as above; assay type: cell-based; details: Mesomycoplasma hyopneumoniae, MS16, 144 h; M. hyopneumoniae MS 16; 6 days at 37° C; read-out: MIC
[22] = system: M. hyopneumoniae PW/C/210; assay: as above; assay type: cell-based; details: Mesomycoplasma hyopneumoniae, 144 h; M. hyopneumoniae PW/C/210; 6 days at 37° C; read-out: MIC
[23] = system: M. hyopneumoniae LABER; assay: as above; assay type: cell-based; details: Mesomycoplasma hyopneumoniae, 144 h
[24] = system: M. hyopneumoniae ATCC 25095; assay: as above; assay type: cell-based; details: Mesomycoplasma hyopneumoniae, ATCC25095, 144 h
[25] = M. hyopneumoniae HK (2), 6 days at 37° C, read-out: MIC
[26] = M. hyopneumoniae NCTC 101101, 6 days at 37° C, read-out: MIC
[27] = M. hyorhinis ATCC 25021, 6 days at 37° C, read-out: MIC
[28] = M. hyosynoviae ATCC 25591, 6 days at 37° C, read-out: MIC
[29] = M. bovigenitalium ATCC 14173, 6 days at 37° C, read-out: MIC
[30] = M. dispar NCTC 10125, 6 days at 37° C, read-out: MIC
[31] = M. hyopneumoniae ATCC 25095, 6 days at 37° C, read-out: MIC

Structure (SMILES)	MIC [1, 25] [µg/mL]	MIC [2, 26] [µg/mL]	MIC [3, 27] [µg/mL]	MIC [4, 28] [µg/mL]	MIC [5] [µg/mL]	MIC [6, 29] [µg/mL]	MIC [7, 30] [µg/mL]	MIC [9] [µg/mL]	MIC [10] [µg/mL]	MIC [11] [µg/mL]	MIC [12] [µg/mL]	MIC [13] [µg/mL]	MIC [14] [µg/mL]	MIC [15] [µg/mL]	MIC [16] [µg/mL]	MIC [17] [µg/mL]	MIC [18] [µg/mL]	MIC [19] [µg/mL]	MIC [2] [µg/mL]	MIC [6] [µg/mL]	also measured
CC(=Cc1nnc(-c2ccco2)o1)CC1OCC(CC2OC2C(C)C(C)O)C(O)C1O (stereo not shown) [Example 8, 2-(2-Furyl)-5-(1-normon-2-yl)-1,3,4-oxadiazole A]	10 (≈ 23 µM)	10 (≈ 23 µM)	2.5 (≈ 5.75 µM)	2.5 (≈ 5.75 µM)	0.1 (≈ 0.23 µM)	0.5 (≈ 1.15 µM)	1 (≈ 2.3 µM)	> 80	> 80	> 80	> 80	80 (≈ 184 µM)	1.25 (≈ 2.88 µM)	0.625 (≈ 1.44 µM)	> 80	10 (≈ 23 µM)	> 80	10 (≈ 23 µM)	–	–	MIC ([8]; human, Neisseria catarrhalis 1502, 18 hours at 37° C, read-out: MIC): 0.5 µg/mL (≈ 1.15 µM)
CC(=Cc1nnc(-c2ccc(N(C)C)cc2)o1)CC1OCC(CC2OC2C(C)C(C)O)C(O)C1O (stereo not shown) [Example 10, 2-(4-Dimethylaminophenyl)-5-(1-normon-2-yl)-1,3,4-oxadiazole A]	–	–	–	–	0.25 (≈ 0.513 µM)	–	–	> 80	> 80	> 80	> 80	> 80	40 (≈ 82 µM)	5 (≈ 10.3 µM)	40 (≈ 82 µM)	20 (≈ 41 µM)	> 80	5 (≈ 10.3 µM)	5 (≈ 10.3 µM)	1 (≈ 2.05 µM)	MIC [1]: 5 µg/mL (≈ 10.3 µM); MIC [3]: 1 µg/mL (≈ 2.05 µM); MIC [4]: 2.5 µg/mL (≈ 5.13 µM); MIC [7]: 0.5 µg/mL (≈ 1.03 µM); MIC ([8]; Neisseria, 1502, 18 h): 0.5 µg/mL (≈ 1.03 µM)
CC(=Cc1nc(-c2ccccc2)no1)CC1OCC(CC2OC2C(C)C(C)O)C(O)C1O (stereo not shown) [Example 15, 5-(1-Normon-2-yl)-3-phenyl-1,2,4-oxadiazole A]	10 (≈ 22.5 µM)	10 (≈ 22.5 µM)	2.5 (≈ 5.62 µM)	10 (≈ 22.5 µM)	0.1 (≈ 0.225 µM)	0.5 (≈ 1.12 µM)	2.5 (≈ 5.62 µM)	> 80	> 80	> 80	> 80	80 (≈ 180 µM)	40 (≈ 90 µM)	–	40 (≈ 90 µM)	2.5 (≈ 5.62 µM)	–	–	–	–	MIC [20]: 10 µg/mL (≈ 22.5 µM); MIC [21]: 5 µg/mL (≈ 11.2 µM); MIC [22]: 5 µg/mL (≈ 11.2 µM); MIC ([23]; M. hyopneumoniae LABER, 6 days at 37° C, read-out: MIC): 5 µg/mL (≈ 11.2 µM); MIC [24, 31]: 5 µg/mL (≈ 11.2 µM)
CC(=Cc1nc(-c2ccc([N+](=O)[O-])cc2)no1)CC1OCC(CC2OC2C(C)C(C)O)C(O)C1O (stereo not shown) [Example 16, 5-(1-Normon-2-yl)-3-(4-nitrophenyl)-1,2,4-oxadiazole]	–	–	0.25 (≈ 0.511 µM)	5 (≈ 10.2 µM)	0.25 (≈ 0.511 µM)	0.5 (≈ 1.02 µM)	–	> 80	> 80	> 80	80 (≈ 163 µM)	10 (≈ 20.4 µM)	5 (≈ 10.2 µM)	–	10 (≈ 20.4 µM)	2.5 (≈ 5.11 µM)	5 (≈ 10.2 µM)	2.5 (≈ 5.11 µM)	1 (≈ 2.04 µM)	–	MIC [23]: 0.25 µg/mL (≈ 0.511 µM); MIC [24]: 0.1 µg/mL (≈ 0.204 µM); MIC [7]: 0.1 µg/mL (≈ 0.204 µM)
CC(=Cc1noc(-c2ccccc2)n1)CC1OCC(CC2OC2C(C)C(C)O)C(O)C1O (stereo not shown) [Example 17, 3-(1-Normon-2-yl)-5-phenyl-1,2,4-oxadiazole]	–	2.5 (≈ 5.62 µM)	2.5 (≈ 5.62 µM)	1 (≈ 2.25 µM)	0.05 (≈ 0.112 µM)	–	0.5 (≈ 1.12 µM)	> 80	> 80	> 80	> 80	40 (≈ 90 µM)	2.5 (≈ 5.62 µM)	–	10 (≈ 22.5 µM)	0.625 (≈ 1.41 µM)	5 (≈ 11.2 µM)	0.625 (≈ 1.41 µM)	–	0.1 (≈ 0.225 µM)	MIC [21]: 1 µg/mL (≈ 2.25 µM); MIC [24, 31]: 1 µg/mL (≈ 2.25 µM)
